Source: patent publication US20170037028A1 (BAYER PHARMA AKTIENGESELLSCHAFT, priority 2013, published 2017)

The molecules below were run against T1, GLUT1 (Homo sapiens, UniProt P11166) (assay: Indirect measurement of GLUT1 activity by quantification of intracellular ATP levels (glucose induced ATP increase)). Details: read-out: IC50 regarding glucose induced ATP increase (GLUT1 inhibition).
T1 sequence (P11166 1-492): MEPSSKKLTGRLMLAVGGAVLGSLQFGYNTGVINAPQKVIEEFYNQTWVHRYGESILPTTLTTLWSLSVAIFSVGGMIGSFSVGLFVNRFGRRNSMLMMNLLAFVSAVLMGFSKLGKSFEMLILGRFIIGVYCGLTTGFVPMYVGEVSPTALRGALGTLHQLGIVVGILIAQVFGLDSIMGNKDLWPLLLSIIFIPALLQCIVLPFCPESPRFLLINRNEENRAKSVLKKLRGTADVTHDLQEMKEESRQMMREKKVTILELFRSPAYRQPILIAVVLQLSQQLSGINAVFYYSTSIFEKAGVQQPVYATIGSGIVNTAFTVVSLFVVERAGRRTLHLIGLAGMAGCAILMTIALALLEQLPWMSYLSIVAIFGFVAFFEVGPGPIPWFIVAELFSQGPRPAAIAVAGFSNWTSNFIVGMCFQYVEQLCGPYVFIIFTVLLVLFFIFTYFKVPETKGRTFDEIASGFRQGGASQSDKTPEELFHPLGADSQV
Assay type: cell-based
Design: endogenous in cells; host or cells: DLD1 or CHO-K1
Method in brief: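 DLD1 or CHO-K1 cells were starved overnight in glucose-free medium with 1% FCS, then combined with an oxidative phosphorylation inhibitor. GLUT1 activity was read as glucose-induced ATP increase, GLUT2 as fructose-induced. Intracellular ATP was quantified by CellTiter-Glo luminescence.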
With Cc1nn(Cc2ccc(C#N)cn2)c(C)c1NC(=O)c1cc(C(N)=O)nc2ccc(Br)cc12 [Example 350, 6-bromo-N^4-{1-[(5-cyanopyridin-2-yl)methyl]-3,5-dimethyl-1H-pyrazol-4-yl}quinoline-2,4-dicarboxamide] the IC50 was 1.1 nM. Cc1nn(Cc2ccc(C#N)cc2)c(C)c1NC(=O)c1cc(S(=O)(=O)N(C)C)nc2ccccc12 [Example 1577] showed an IC50 of 9.7 nM. Cc1nn(CC(=O)Nc2cccc(F)c2)c(C)c1NC(=O)c1cc(C(N)=O)nc2ccccc12 [Example 1701] gave an IC50 of 165 nM. Cc1c(NC(=O)c2cc(C(F)(F)F)nc3c(Cl)cc(Cl)cc23)c(C(F)(F)F)nn1Cc1ccc(F)c(F)c1 [Example 199, 6,8-dichloro-N-[1-(3,4-difluorobenzyl)-5-methyl-3-(trifluoromethyl)-1H-pyrazol-4-yl]-2-(trifluoromethyl)quinoline-4-carboxamide] gave an IC50 of 441 nM. Work on COc1ccc(Cn2nc(C)c(NC(=O)c3cc(C(N)=O)nc4ccccc34)c2C)cn1 [Example 282, N^4-{1-[(6-methoxypyridin-3-yl)methyl]-3,5-dimethyl-1H-pyrazol-4-yl}quinoline-2,4-dicarboxamide] yielded an IC50 of 3.2 nM. Work on Cc1c(NC(=O)c2cc(C(N)=O)nc3cc(F)c(F)cc23)c(C(F)(F)F)nn1Cc1ccc(C#N)cc1F [Example 304, N^4-[1-(4-cyano-2-fluorobenzyl)-5-methyl-3-(trifluoromethyl)-1H-pyrazol-4-yl]-6,7-difluoroquinoline-2,4-dicarboxamide] yielded an IC50 of 3.6 nM. Work on COc1cc(C(=O)Nc2c(C)nn(Cc3ccc(C#N)cc3)c2C)c2cc(F)ccc2n1 [Example 265, N-[1-(4-cyanobenzyl)-3,5-dimethyl-1H-pyrazol-4-yl]-6-fluoro-2-methoxyquinoline-4-carboxamide] yielded an IC50 of 6.6 nM. COc1ccc(CCn2nc(C)c(NC(=O)c3cc(OC)nc4ccccc34)c2C)cc1 [Example 1341] gave an IC50 of 297 nM. Cc1nn(Cc2ccc(C#N)cc2)c(C)c1NC(=O)c1cc(C(N)=O)nc2c(F)cc(Cl)cc12 [Example 252, 6-chloro-N^4-[1-(4-cyanobenzyl)-3,5-dimethyl-1H-pyrazol-4-yl]-8-fluoroquinoline-2,4-dicarboxamide] was tested, and the IC50 was 1.2 nM. Cc1nn(Cc2cccc(OC(F)(F)F)c2)c(C)c1NC(=O)c1cc(C(F)(F)F)nc2ccc(Br)cc12 [Example 113, 6-bromo-N-{3,5-dimethyl-1-[3-(trifluoromethoxy)benzyl]-1H-pyrazol-4-yl}-2-(trifluoromethyl)quinoline-4-carboxamide] was tested, and the IC50 was 813 nM. Molecule Cc1nn(Cc2ccc(C(=O)NCCN(C)C)cn2)c(C)c1NC(=O)c1cc(C(F)(F)F)nc2ccc(Br)cc12 [Example 1292] has an IC50 of 7380 nM. Cc1nn(Cc2cccc(C#N)n2)c(C)c1NC(=O)c1cc(C(N)=O)nc2ccccc12 [Example 1708] was tested, and the IC50 was 147 nM. Work on Cc1nn(Cc2ccc(OC(F)(F)F)cc2)c(C)c1NC(=O)c1cc(C(N)=O)nc2cc(F)c(Cl)cc12 [Example 1463] yielded an IC50 of 4.1 nM. For Cc1nn(Cc2ccccc2C#N)c(C)c1NC(=O)c1cc(C(N)=O)nc2c(F)cc(Cl)cc12 [Example 269, 6-chloro-N^4-[1-(2-cyanobenzyl)-3,5-dimethyl-1H-pyrazol-4-yl]-8-fluoroquinoline-2,4-dicarboxamide], the IC50 was 1.5 nM. With Cc1nn(Cc2ccc(S(C)(=N)=O)cc2)c(C)c1NC(=O)c1cc(C(F)(F)F)nc2ccc(Br)cc12 (racemic) [Example 1427] the IC50 was 26.9 nM. With Cc1nn(Cc2ccc(C(=O)N(C)C)cc2)c(C)c1NC(=O)c1cc(C(N)=O)nc2cc(F)ccc12 [Example 1426] the IC50 was 80 nM. Work on Cc1nn(Cc2ccc(C#N)cn2)c(C)c1NC(=O)c1cc(C(N)=O)nc2ccccc12 [Example 355, N^4-{1-[(5-cyanopyridin-2-yl)methyl]-3,5-dimethyl-1H-pyrazol-4-yl}quinoline-2,4-dicarboxamide] yielded an IC50 of 3.9 nM. Cc1c(NC(=O)c2cc(C(N)=O)nc3cc(F)ccc23)c(C(F)(F)F)nn1Cc1cccc(S(C)(=O)=O)c1 [Example 1637] showed an IC50 of 288 nM. In the case of COc1ccc(Cn2nc(C)c(NC(=O)c3cc(C(N)=O)nc4cc(F)c(Cl)cc34)c2C)cn1 [Example 283, 6-chloro-7-fluoro-N^4-{1-[(6-methoxypyridin-3-yl)methyl]-3,5-dimethyl-1H-pyrazol-4-yl}quinoline-2,4-dicarboxamide], the IC50 is reported as 1.2 nM. Cc1c(NC(=O)c2cc(C(N)=O)nc3cc(F)ccc23)c(C(F)(F)F)nn1Cc1cccc(C(N)=O)c1 [Example 1601] gave an IC50 of 24.6 nM. In the case of Cc1c(NC(=O)c2cc(C(N)=O)nc3cc(F)ccc23)c(C(C)C)nn1Cc1ccc(C#N)cc1 [Example 321, N^4-[1-(4-cyanobenzyl)-3-isopropyl-5-methyl-1H-pyrazol-4-yl]-7-fluoroquinoline-2,4-dicarboxamide], the IC50 is reported as 7.2 nM. In the case of Cc1nn(Cc2cc(C#N)no2)c(C)c1NC(=O)c1cc(C(N)=O)nc2cc(F)ccc12 [Example 1566], the IC50 is reported as 14.2 nM. For Cc1c(NC(=O)c2cc(C(N)=O)nc3ccccc23)c(C(F)(F)F)nn1Cc1ccc(C#N)s1 [Example 1679], the IC50 was 18.6 nM. Work on Cc1ccc2nc(C)cc(C(=O)Nc3c(C)nn(Cc4ccc(F)c(F)c4)c3C)c2c1 [Example 64, N-[1-(3,4-difluorobenzyl)-3,5-dimethyl-1H-pyrazol-4-yl]-2,6-dimethylquinoline-4-carboxamide] yielded an IC50 of 130 nM. Molecule Cc1nn(Cc2cccc(C(F)(F)F)c2)c(C)c1NC(=O)c1cc(C(F)(F)F)nc2ccc(Br)cc12 [Example 1297] has an IC50 of 11100 nM. Cc1ccc2nc(C)cc(C(=O)Nc3c(C)nn(Cc4ccc(F)cc4F)c3C)c2c1 [Example 96, N-[1-(2,4-difluorobenzyl)-3,5-dimethyl-1H-pyrazol-4-yl]-2,6-dimethylquinoline-4-carboxamide] showed an IC50 of 344 nM. Work on Cc1nn(Cc2ccccn2)c(C)c1NC(=O)c1cc(C(F)(F)F)nc2ccc(Br)cc12 [Example 70, 6-bromo-N-[3,5-dimethyl-1-(pyridin-2-ylmethyl)-1H-pyrazol-4-yl]-2-(trifluoromethyl)quinoline-4-carboxamide] yielded an IC50 of 173 nM. Work on COc1ccc(Cn2nc(C)c(NC(=O)c3cc(C(N)=O)nc4cc(F)c(Cl)cc34)c2C)cc1F [Example 237, 6-chloro-7-fluoro-N^4-[1-(3-fluoro-4-methoxybenzyl)-3,5-dimethyl-1H-pyrazol-4-yl]quinoline-2,4-dicarboxamide] yielded an IC50 of 0.4 nM. With Cc1c(NC(=O)c2cc(C(F)(F)F)nc3ccc(Br)cc23)c(C(F)(F)F)nn1CCc1ccc(F)cc1 [Example 1373] the IC50 was 1990 nM. CC(C)c1nn(Cc2ccc(C#N)cc2)c(C(F)(F)F)c1NC(=O)c1cc(C(N)=O)nc2ccccc12 [Example 319, N^4-[1-(4-cyanobenzyl)-3-isopropyl-5-(trifluoromethyl)-1H-pyrazol-4-yl]quinoline-2,4-dicarboxamide] showed an IC50 of 1 nM. Cc1c(NC(=O)c2cc(C(N)=O)nc3cccc(F)c23)c(C(F)(F)F)nn1Cc1ccc(C#N)cn1 [Example 363, N^4-{1-[(5-cyanopyridin-2-yl)methyl]-5-methyl-3-(trifluoromethyl)-1H-pyrazol-4-yl}-5-fluoroquinoline-2,4-dicarboxamide] was tested, and the IC50 was 6 nM. For CCS(=O)(=O)N1CCC(Cn2nc(C)c(NC(=O)c3cc(C(N)=O)nc4cc(F)ccc34)c2C)CC1 [Example 1534], the IC50 was 19.7 nM. Cc1nn(Cc2ccc(C(=O)NCCN3CCOCC3)cc2)c(C)c1NC(=O)c1cc(C(F)(F)F)nc2ccc(Br)cc12 [Example 136, 6-bromo-N-[3,5-dimethyl-1-(4-{[2-(morpholin-4-yl)ethyl]carbamoyl}benzyl)-1H-pyrazol-4-yl]-2-(trifluoromethyl)quinoline-4-carboxamide] gave an IC50 of 9 nM. With Cc1nn(Cc2ccc(C(=O)NCC#N)cc2)c(C)c1NC(=O)c1cc(C(F)(F)F)nc2ccc(Br)cc12 [Example 1022] the IC50 was 2.4 nM. Work on Cc1c(NC(=O)c2cc(C(F)(F)F)nc3ccc(Br)cc23)c(C(=O)O)nn1Cc1ccc(F)cc1 [Example 1271] yielded an IC50 of 3060 nM. In the case of Cc1nn(Cc2c(F)cc(C#N)cc2F)c(C)c1NC(=O)c1cc(C(N)=O)nc2ccccc12 [Example 391, N^4-[1-(4-cyano-2,6-difluorobenzyl)-3,5-dimethyl-1H-pyrazol-4-yl]quinoline-2,4-dicarboxamide], the IC50 is reported as 7 nM. Cc1nn(Cc2ccc(C#N)cc2)c(C)c1NC(=O)c1cc(Br)nc2ccccc12 [Example 380, 2-bromo-N-[1-(4-cyanobenzyl)-3,5-dimethyl-1H-pyrazol-4-yl]quinoline-4-carboxamide] was tested, and the IC50 was 45.9 nM. In the case of Cc1nn(Cc2ccc(C#N)nc2)c(C)c1NC(=O)c1cc(C(N)=O)nc2ccccc12 [Example 225, N^4-{1-[(6-cyanopyridin-3-yl)methyl]-3,5-dimethyl-1H-pyrazol-4-yl}quinoline-2,4-dicarboxamide], the IC50 is reported as 14 nM. With Cc1c(NC(=O)c2cc(C(N)=O)nc3ccc(O)cc23)c(C(F)(F)F)nn1Cc1ccc(C#N)cc1 [Example 425, N^4-[1-(4-cyanobenzyl)-5-methyl-3-(trifluoromethyl)-1H-pyrazol-4-yl]-6-hydroxyquinoline-2,4-dicarboxamide] the IC50 was 4.9 nM. In the case of CCOC(=O)c1cc(Cn2nc(C(F)(F)F)c(NC(=O)c3cc(C(N)=O)nc4cc(F)ccc34)c2C)on1 [Example 1677], the IC50 is reported as 353 nM.
